Assay results reported in US20160200733A1, “SUBSTITUTED THIENO[2,3-B]PYRIDINE-2-CARBOXAMIDE ANALOGS AS POSITIVE ALLOSTERIC MODULATORS OF THE MUSCARINIC ACETYLCHOLINE RECEPTOR M4” (Vanderbilt University, priority 2013, published 2016).

Target: T1, mAChR hM4 (Homo sapiens, UniProt P08173)
T1 construct: expressed in transfected cells; host or cells: CHO-K1 (Chinese hamster ovary) cells
T1 sequence (P08173 1-479): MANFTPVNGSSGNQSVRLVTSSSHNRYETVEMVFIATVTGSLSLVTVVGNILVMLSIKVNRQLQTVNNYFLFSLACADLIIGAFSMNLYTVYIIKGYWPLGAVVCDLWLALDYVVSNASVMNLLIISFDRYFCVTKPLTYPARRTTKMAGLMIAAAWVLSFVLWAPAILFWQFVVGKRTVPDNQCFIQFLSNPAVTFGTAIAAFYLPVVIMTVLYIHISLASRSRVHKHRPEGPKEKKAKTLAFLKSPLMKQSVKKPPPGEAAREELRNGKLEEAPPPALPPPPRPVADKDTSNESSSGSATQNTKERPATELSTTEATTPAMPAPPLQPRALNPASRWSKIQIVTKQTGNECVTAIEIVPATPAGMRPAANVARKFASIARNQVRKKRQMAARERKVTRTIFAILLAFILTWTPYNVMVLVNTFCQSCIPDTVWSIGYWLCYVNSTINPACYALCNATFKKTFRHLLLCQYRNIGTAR
Test: mAChR M4 cell-based functional assay (calcium flux, potentiation of EC20 acetylcholine response)
Details: mAChR hM4 cell-line; for EC50: >10,000 estimated for low potency compounds lacking a plateau
Description: In one aspect, the disclosed compounds potentiate the agonist response (e.g., acetylcholine) of mAChR M4. In a further aspect, the disclosed compounds increase mAChR M4 response to non-maximal concentrations of agonist in the presence of compound compared to the response to agonist in the absence of compound. […] For example, activation of mAChR M4 activity can be determined by measurement of calcium flux in response to agonist, e.g. acetylcholine, in cells loaded with a Ca^2+-sensitive fluorescent dye (e.g., Fluo-4). In a further aspect, the calcium flux was measured as an increase in fluorescent static ratio. In a yet further aspect, positive allosteric modulator activity was analyzed as a concentration-dependent increase in the EC20 acetylcholine response (i.e. the response of mAChR M4 at a concentration of acetylcholine that yields 20% of the maximal response).
In one aspect, the disclosed compounds activate mAChR M4 response as an increase in calcium fluorescence in mAChR M4-transfected CHO-K1 cells in the presence of the compound, compared to the response of equivalent CHO-K1 cells in the absence of the compound. […] In a further aspect, the mAChR M4-transfected CHO-K1 cells are transfected with human mAChR M4. In a still further aspect, the mAChR M4-transfected CHO-K1 cells are transfected with rat mAChR M4.
Substituted 3-aminothieno[2,3-c]pyridine-2-carboxamide analogs were synthesized as described above. Activity (EC50 and Emax) was determined in the mAChR M4 cell-based functional assay as described above, and the data are shown in Table II for assays conducted using mAChR hM4 cell-line. The compound number corresponds to the compound numbers used in Table I.

Emax at 30 µM (% ACh maximum at 30 μM) | EC50 | Emax (%) (% ACh maximum at 30 μM) | Structure (SMILES)
67% | 4.1 µM |  | CCc1c(C(=O)NCc2ccc(S(C)(=O)=O)cc2)sc2nc(C)cc(C)c12 [Compound 38, 3-ethyl-4,6-dimethyl-N-(4-(methylsulfonyl)benzyl)thieno[2,3-b]pyridine-2-carboxamide]
 | > 10 µM |  | Cc1nc2sc(C(=O)NCc3ccc4c(c3)OCCO4)c(Br)c2c(C)c1Cl [Compound 39, 3-bromo-5-chloro-N-((2,3-dihydrobenzo[b][1,4]dioxin-6-yl)methyl)-4,6-dimethylthieno[2,3-b]pyridine-2-carboxamide]
 | > 10 µM |  | COc1ccc(C(C)NC(=O)c2sc3nc(C)c(Cl)c(C)c3c2Br)cc1 (stereo not shown) [Compound 40, 3-bromo-5-chloro-N-(1-(4-methoxyphenyl)ethyl)-4,6-dimethylthieno[2,3-b]pyridine-2-carboxamide]
84% | 0.53 µM |  | Cc1nc2sc(C(=O)NC3COC3)c(Br)c2c(C)c1Cl [Compound 41, 3-bromo-5-chloro-4,6-dimethyl-N-(oxetan-3-yl)thieno[2,3-b]pyridine-2-carboxamide]
 | > 10 µM |  | Cc1nc2sc(C(=O)NCC3CC3)c(Br)c2c(C)c1Cl [Compound 42, 3-bromo-5-chloro-N-(cyclopropylmethyl)-4,6-dimethylthieno[2,3-b]pyridine-2-carboxamide]
 | > 10 µM |  | COc1ccc(CN(C)C(=O)c2sc3nc(C)c(Cl)c(C)c3c2Br)cc1 [Compound 43, 3-bromo-5-chloro-N-(4-methoxybenzyl)-N,4,6-trimethylthieno[2,3-b]pyridine-2-carboxamide]
54% | 0.59 µM |  | Cc1nc2sc(C(=O)NC3CCOC3)c(Br)c2c(C)c1Cl (stereo not shown) [Compound 44, 3-bromo-5-chloro-4,6-dimethyl-N-(tetrahydrofuran-3-yl)thieno[2,3-b]pyridine-2-carboxamide]
 | > 10 µM |  | Cc1nc2sc(C(=O)NCc3ccc(S(C)(=O)=O)cc3)c(Br)c2c(C)c1Cl [Compound 45, 3-bromo-5-chloro-4,6-dimethyl-N-(4-(methylsulfonyl)benzyl)thieno[2,3-b]pyridine-2-carboxamide]
 | > 10 µM |  | Cc1nc2sc(C(=O)NCc3ccc4c(c3)CCO4)c(Br)c2c(C)c1Cl [Compound 46, 3-bromo-5-chloro-N-((2,3-dihydrobenzofuran-5-yl)methyl)-4,6-dimethylthieno[2,3-b]pyridine-2-carboxamide]
 | > 10 µM |  | COc1ccc(CNC(=O)c2sc3nc(C)c(Cl)c(C)c3c2Br)cc1 [Compound 47, 3-bromo-5-chloro-N-(4-methoxybenzyl)-4,6-dimethylthieno[2,3-b]pyridine-2-carboxamide]
54% | 0.57 µM |  | Cc1nc2sc(C(=O)NC3(C)COC3)c(Br)c2c(C)c1Cl [Compound 48, 3-bromo-5-chloro-4,6-dimethyl-N-(3-methyloxetan-3-yl)thieno[2,3-b]pyridine-2-carboxamide]
62% | 0.77 µM |  | Cc1nc2sc(C(=O)NC3CC3)c(Br)c2c(C)c1Cl [Compound 49, 3-bromo-5-chloro-N-cyclopropyl-4,6-dimethylthieno[2,3-b]pyridine-2-carboxamide]
43% | > 10 µM |  | Cc1nc2sc(C(=O)NCC(C)(C)O)c(C3CC3)c2c(C)c1Cl [Compound 50, 5-chloro-3-cyclopropyl-N-(2-hydroxy-2-methylpropyl)-4,6-dimethylthieno[2,3-b]pyridine-2-carboxamide]
 | > 10 µM |  | Cc1nc2sc(C(=O)NC3CCS(=O)(=O)C3)c(C3CC3)c2c(C)c1Cl (stereo not shown) [Compound 51, 5-chloro-3-cyclopropyl-N-(1,1-dioxidotetrahydrothiophen-3-yl)-4,6-dimethylthieno[2,3-b]pyridine-2-carboxamide]
60% | 1.6 µM |  | Cc1nc2sc(C(=O)NC3CCOC3)c(C3CC3)c2c(C)c1Cl (stereo not shown) [Compound 52, 5-chloro-3-cyclopropyl-4,6-dimethyl-N-(tetrahydrofuran-3-yl)thieno[2,3-b]pyridine-2-carboxamide]
 | > 10 µM |  | COc1ccc(CNC(=O)c2sc3nc(C)c(Cl)c(C)c3c2C2CC2)cc1 [Compound 53, 5-chloro-3-cyclopropyl-N-(4-methoxybenzyl)-4,6-dimethylthieno[2,3-b]pyridine-2-carboxamide]

Emax at 30 µM (% ACh maximum at 30 μM) | EC50 | Emax (%) (% ACh maximum at 30 μM) | Structure (SMILES)
50% | 0.43 µM |  | Cc1nc2sc(C(=O)NC3CC3)c(C3CC3)c2c(C)c1Cl [Compound 54, 5-chloro-N,3-dicyclopropyl-4,6-dimethylthieno[2,3-b]pyridine-2-carboxamide]
85% | 0.86 µM |  | Cc1nc2sc(C(=O)NC3COC3)c(C3CC3)c2c(C)c1Cl [Compound 55, 5-chloro-3-cyclopropyl-4,6-dimethyl-N-(oxetan-3-yl)thieno[2,3-b]pyridine-2-carboxamide]
38% | 1.4 µM |  | Cc1nc2sc(C(=O)NC3(C)COC3)c(C3CC3)c2c(C)c1Cl [Compound 56, 5-chloro-3-cyclopropyl-4,6-dimethyl-N-(3-methyloxetan-3-yl)thieno[2,3-b]pyridine-2-carboxamide]
79% | 1.2 µM |  | Cc1nc2sc(C(=O)NC3CCOC3)c(C)c2c(C)c1Cl (stereo not shown) [Compound 57, 5-chloro-3,4,6-trimethyl-N-(tetrahydrofuran-3-yl)thieno[2,3-b]pyridine-2-carboxamide]
 | > 10 µM |  | Cc1nc2sc(C(=O)NC3CCN(C)CC3)c(C)c2c(C)c1Cl [Compound 58, 5-chloro-3,4,6-trimethyl-N-(1-methylpiperidin-4-yl)thieno[2,3-b]pyridine-2-carboxamide]
45% | 0.95 µM |  | Cc1nc2sc(C(=O)NC3CCS(=O)(=O)C3)c(C)c2c(C)c1Cl (stereo not shown) [Compound 59, 5-chloro-N-(1,1-dioxidotetrahydrothiophen-3-yl)-3,4,6-trimethylthieno[2,3-b]pyridine-2-carboxamide]
79% | 0.38 µM |  | Cc1nc2sc(C(=O)NC3CC3)c(C)c2c(C)c1Cl [Compound 60, 5-chloro-N-cyclopropyl-3,4,6-trimethylthieno[2,3-b]pyridine-2-carboxamide]
 | 0.36 µM | 70% | Cc1nc2sc(C(=O)NC3COC3)c(Br)c2c(C)c1Cl [Compound 61, 3-bromo-5-chloro-4,6-dimethyl-N-(oxetan-3-yl)thieno[2,3-b]pyridine-2-carboxamide]
 | > 10 µM |  | Cc1nc2sc(C(=O)NC3COC3)c(-c3ccccc3)c2c(C)c1Cl [Compound 62, 5-chloro-4,6-dimethyl-N-(oxetan-3-yl)-3-phenylthieno[2,3-b]pyridine-2-carboxamide]
76% | 0.41 µM |  | Cc1nc2sc(C(=O)NC3COC3)c(C)c2c(C)c1Cl [Compound 63, 5-chloro-3,4,6-trimethyl-N-(oxetan-3-yl)thieno[2,3-b]pyridine-2-carboxamide]
 | > 10 µM |  | Cc1nc2sc(C(=O)N3CCC(c4ccccc4)C3)c(C3CC3)c2c(C)c1Cl (stereo not shown) [Compound 64, (5-chloro-3-cyclopropyl-4,6-dimethylthieno[2,3-b]pyridin-2-yl)(3-phenylpyrrolidin-1-yl)methanone]
 | > 10 µM |  | COc1ccc(C2CC2NC(=O)c2sc3nc(C)c(Cl)c(C)c3c2C2CC2)cc1 (stereo not shown) [Compound 65, 5-chloro-3-cyclopropyl-N-(2-(4-methoxyphenyl)cyclopropyl)-4,6-dimethylthieno[2,3-b]pyridine-2-carboxamide]
 | > 10 µM |  | COc1ccc(CNC(=O)c2sc3nc(C)cc(C)c3c2-c2cnn(C)c2)cc1F [Compound 66, N-(3-fluoro-4-methoxybenzyl)-4,6-dimethyl-3-(1-methyl-1H-pyrazol-4-yl)thieno[2,3-b]pyridine-2-carboxamide]
 | > 10 µM |  | Cc1cc(C)c2c(-c3cnn(C)c3)c(C(=O)N3CCC(c4ccccc4)C3)sc2n1 (stereo not shown) [Compound 67, (4,6-dimethyl-3-(1-methyl-1H-pyrazol-4-yl)thieno[2,3-b]pyridin-2-yl)(3-phenylpyrrolidin-1-yl)methanone]
 | > 10 µM |  | COc1ccc(C2CC2NC(=O)c2sc3nc(C)cc(C)c3c2-c2cnn(C)c2)cc1 (stereo not shown) [Compound 68, N-(2-(4-methoxyphenyl)cyclopropyl)-4,6-dimethyl-3-(1-methyl-1H-pyrazol-4-yl)thieno[2,3-b]pyridine-2-carboxamide]
